Experimental data as given in patent US5334587A, “Compounds, named the "Leustroducsins", their preparation and their therapeutic uses” (Sankyo Company, Limited, priority 1991, dated 1994).
In brackets after ≈: the same amount, converted by molar mass.

Key:
Acute toxicity = assay type: in vivo, ddY mice (male)
Protocol: According to the conventional procedure, the acute toxicity was tested in five ddY mice (male).

[1] = test system: G-CSF production by KM-102 cells; assay: Stimulation of G-CSF production (KM-102 cells; G-CSF assayed by growth of NFS-60 cells); assay type: cell-based, human; details: for EC50: Homo sapiens, 24 hours, NFS-60 cell growth, read-out: ED50 for stimulation of G-CSF production; for EC50 / induction of G-CSF production (in words): KM-102 cells
Description: (§1) The ability of the leustroducsins to stimulate the production of hematopoietic factors in accordance with the present invention can, in principle, be assayed by the method by Kohama et al. [Experimental Hematology 16, 603-608 (1988)]. In this method, a production system for various hematopoietic factors and an assay system for various hematopoietic factors are combined. KM-102 cells, for example, which originated from human bone marrow stromal cells, my be employed to produce various hematopoietic factors. However, any cells capable of the production of various hematopoietic factors may be used instead, for example primary cultured bone marrow stromal cells, vascular endothelial cells, lymphocytes, or macrophages which exist in the bone marrow. A test sample of the compound whose activity is to be assessed is diluted to a suitable concentration and added the culture system containing the cells which produce various hematopoietic factors ("HF-producing cells"). After a suitable period, usually 24 hours, a part of the supernatant of the culture medium is taken, and added to a culture system of cells which are dependent on various hematopoietic factors, for example, TF-1 cells and NFS-60 cells, ("HF-dependent cells") at a suitable concentration. After a certain time, the amount of hematopoietic factors can be measured by measuring the growth of the HF-dependent cells, and thus the ability of the compound to stimulate the production of various hematopoietic factors can be assayed. The growth of the HF-dependent cells may be determined by any conventional method, such as the incorporation of tritium-thymidine by the cells or using an MTT [3-(4,5-dimethylthiazol-2-yl)-2,5-diphenyltetrazolium bromide] assay method (Chemicon International Inc., USA). The assay of various hematopoietic factors may be carried out by any conventional method, such as the colony-forming method or the ELISA method.
Stimulation of G-CSF production was assayed by a system in which the GM-CSF assay system employed inTest Example 1 was replaced by a G-CSF assay system [as described by Shirafuji et al.: Experimental Hematology 17, 116-119 (1989)]. In more detail, KM-102 cells originating from human bone marrow stromal cells, which served to produce G-CSF, were added to a leustroducsin solution diluted to a suitable concentration (the "G-CSF producing system"). After incubation for 24 hours, a part of the culture supernatant was taken, and added to a culture system of G-CSF-dependent NFS-60 cells. After between 24 and 48 hours, the amount of G-CSF was assayed from the growth of NFS-60 cells (the "G-CSF assay system") to obtain a measure of the stimulation of G-CSF production. The growth of NFS-60 cells was determined by tritium-thymidine pulse-labelling for 4 hours. Similar results were also obtained by means of an MTT kit to assay the growth of NFS-60 cells and by means of an ELISA kit to assay the G-CSF [Motojima et al.: Journal of Immunological Methods 118, 187-192 (1989)]. Whether the G-CSF production inducing system functioned normally or not was assayed by means of recombinant interleukin 1 β (IL-1β: Genzyme Inc. USA).

Solubility / nature = assay type: physicochemical
[2] = test system: GM-CSF production by KM-102 cells; assay: Stimulation of GM-CSF production (KM-102 cells; GM-CSF assayed by growth of TF-1 cells); assay type: cell-based, human; details: for EC50: Homo sapiens, 24 hours, TF-1 cell growth, read-out: ED50 for stimulation of GM-CSF production; for EC50 / induction of GM-CSF production (in words): KM-102 cells
Description: as §1
Determination of the stimulation of GM-CSF production by the compounds of the present invention was carried out, in principle, using a combination of the method of Kohama et al. [Experimental Hematology 16, 603-608 (1988)] and that of Kitamura et al. [Journal of Cellular Physiology 140, 323-334 (1989)]. In more detail, KM-102 cells originating from human bone marrow stromal cells, which served as to produce GM-CSF, were mixed with a test sample solution diluted to a suitable concentration (the "GM-CSF producing system"). After incubation for 24 hours, a part of the culture supernatant was taken and was added to a culture system of GM-CSF-dependent human TF-1 cells. After between 48 and 72 hours, the amount of GM-CSF was measured by the growth of TF-1 cells (the "GM-CSF assay system") to obtain a measure of the stimulation of GM-CSF production. The growth of TF-1 cells was determined by tritium thymidine pulse-labelling for 4 hours. Similar results were obtained also by means of an MTT kit (Chemicon International Inc. USA) to assay the growth of TF-1 cells and by means of an ELISA kit (Genzyme Inc. USA) to assay the GM-CSF. Whether the GM-CSF production inducing system functioned normally or not was assayed by means of recombinant interleukin 1β (IL-1β: Genzyme Inc. USA).

[3] = similarly tested, dose not separately printed

Compound | acute toxicity (Acute toxicity; intraperitoneal, 0.2 mg/kg, 5 days, five mice) | EC50 [1] [µg/mL] | induction of G-CSF production (in words) [1] | Nature (Solubility / nature) | Solubility in hexane (Solubility / nature) | Solubility in organic solvents (Solubility / nature) | Solubility in water (Solubility / nature) | EC50 [2] [µg/mL] | induction of GM-CSF production (in words) [2] | acute toxicity (Acute toxicity; [3]) | induction by IL-1β, printed as GM-CSF production in the G-CSF test (in words) ([1]; 1 to 100 units/ml) | induction of GM-CSF production by IL-1β (in words) ([2]; 1 to 100 units/ml)
CCC1C=CC(=O)OC1/C=C/C(O)(CCN)C(CC(O)/C=C\C=C/C1CCCC(OC(=O)CCCC(C)C)C1)OP(=O)(O)O (centres unmarked) [Leustroducsin A] | no toxicity was observed | 0.2 (≈ 0.312 µM) | induced in a dose-dependent fashion | Acidic and fat soluble | insoluble in hexane | Soluble in alcohols, such as methanol, ethanol or butanol; and soluble in acetone, chloroform, ethyl acetate and dimethyl sulfoxide | limited solubility in water | 0.18 | induced in a dose-dependent manner |  |  | 
CCC(C)CCCCC(=O)OC1CCCC(/C=C\C=C/C(O)CC(OP(=O)(O)O)C(O)(/C=C/C2OC(=O)C=CC2CC)CCN)C1 (centres unmarked) [Leustroducsin B] |  | 0.05 (≈ 0.0746 µM) | induced in a dose-dependent fashion | Acidic and fat soluble | insoluble in hexane | Soluble in alcohols, such as methanol, ethanol or butanol; and soluble in acetone, chloroform, ethyl acetate and dimethyl sulfoxide | limited solubility in water | 0.05 | induced in a dose-dependent manner | no toxicity was observed |  | 
CCC1C=CC(=O)OC1/C=C/C(O)(CCN)C(CC(O)/C=C\C=C/C1CCCC(OC(=O)CCCCCC(C)C)C1)OP(=O)(O)O (centres unmarked) [Leustroducsin C] |  | 0.05 (≈ 0.0746 µM) | induced in a dose-dependent fashion | Acidic and fat soluble | insoluble in hexane | Soluble in alcohols, such as methanol, ethanol or butanol; and soluble in acetone, chloroform, ethyl acetate and dimethyl sulfoxide | limited solubility in water | 0.05 | induced in a dose-dependent manner | no toxicity was observed |  | 
IL-1β: recombinant interleukin 1β (IL-1β: Genzyme Inc. USA) |  |  |  |  |  |  |  |  |  |  | induced GM-CSF production in a dose-dependent fashion | induced GM-CSF production in a dose-dependent manner
